# Source: patent US6737383B1, “Herbicidal oxadiazolidines” (priority 1999, dated 2004)
# Legend:
# soybean = test: Test B pre/postemergence soybean; assay type: in vivo, Glycine max
# Outline: (§1)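 Response is a visual 0-to-10 score relative to untreated plants, where 0 means no effect and 10 means complete control, taken twelve to sixteen days after application. Treatments went onto soil at planting and onto foliage of 1- to 4-leaf plants, using a surfactant-containing non-phytotoxic solvent.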
# wheat = test: Test B pre/postemergence wheat; assay type: in vivo, Triticum aestivum
# Outline: as §1
# purple nutsedge = test: Test B pre/postemergence purple nutsedge; assay type: in vivo, Cyperus rotundus
# Outline: as §1
# duck salad = test: Test B flood test duck salad; assay type: in vivo, Heteranthera limosa; conditions: for Plant response rating, Ducksalad (0 to 10 scale, 0 is no effect, 10 is complete control): Rate 62 g/ha; for Plant response rating, Ducksalad (0 to 10 scale, 0 is no effect, 10 is complete control) / Ducksalad plant response rating (0 to 10 scale, 0 is no effect, 10 is complete control): visual evaluation after twelve to sixteen days; for Ducksalad plant response rating (0 to 10 scale, 0 is no effect, 10 is complete control): Rate 125 g/ha, under heading Pre-emergence
# Outline: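 Read-out is a visual response score from 0 (no effect) to 10 (complete control), assigned by comparison with untreated controls. Treatment was applied at the 2-leaf stage, and plants stayed in the greenhouse for twelve to sixteen days before scoring.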
# [1] = Postemergence, Rate 250 g/ha, scale 0 to 10
# [2] = Preemergence, Rate 62 g/ha, scale of 0 to 10 where 0 is no effect and 10 is complete control
# [3] = Preemergence, Rate 125 g/ha, scale of 0 to 10 where 0 is no effect and 10 is complete control
# [4] = Preemergence, Rate 250 g/ha, scale 0 to 10, 0 is no effect, 10 is complete control
# [5] = Preemergence, Rate 500 g/ha, scale 0 to 10, 0 is no effect, 10 is complete control
# [6] = Rate 62 g/ha, Postemergence, scale 0 to 10, 0 no effect, 10 complete control
# [7] = Rate 125 g/ha, Postemergence, scale 0 to 10, 0 is no effect, 10 is complete control
# [8] = flood test species, Pre-emergence
# [9] = Rate 250 g/ha, Pre-emergence (flood test species), scale 0 to 10, 0 is no effect, 10 is complete control
# [10] = Rate 500 g/ha, Pre-emergence, flood test species, scale 0 to 10 (0 no effect, 10 complete control)
# [11] = Postemergence, Rate 125 g/ha, scale 0 to 10, 0 is no effect, 10 is complete control
# [12] = Postemergence, Rate 500 g/ha, scale 0 to 10, 0 is no effect, 10 is complete control
# [13] = Preemergence, Rate 125 g/ha, scale 0 to 10, 0 is no effect, 10 is complete control
# [14] = Rate 500 g/ha, Pre-emergence section of Table B, 0 to 10 scale (0 no effect, 10 complete control)
# [15] = Postemergence, Rate 62 g/ha, scale of 0 to 10, 0 is no effect, 10 is complete control
# [16] = Postemergence, Rate 500 g/ha, scale of 0 to 10 where 0 is no effect and 10 is complete control
# [17] = Preemergence, Rate 62 g/ha, scale 0 to 10 (0 no effect, 10 complete control)
# [18] = Preemergence, Rate 500 g/ha, scale of 0 to 10 where 0 is no effect and 10 is complete control
# [19] = Rate 250 g/ha, Postemergence, scale of 0 to 10 where 0 is no effect and 10 is complete control
smiles,measurement,setting,value
C=CC(OC)n1c(=O)on(C(=O)N(c2ccc(F)cc2)C(C)C)c1=O (centres unmarked) [Compound 452],Soybean plant response rating,soybean; [1],1
same,"Plant response rating, Soybean",soybean; [2],0
same,"Plant response rating, Soybean",soybean; [3],0
same,Soybean plant response rating,soybean; [4],0
same,Soybean plant response rating,soybean; [5],0
same,Soybean plant response rating,soybean; [6],1
same,Soybean plant response rating,soybean; [7],1
same,Wheat plant response rating,wheat; [1],0
same,"Plant response rating, Wheat",wheat; [2],0
same,"Plant response rating, Wheat",wheat; [3],0
same,Wheat plant response rating,wheat; [4],0
same,Wheat plant response rating,wheat; [5],0
same,Wheat plant response rating,wheat; [6],0
same,Wheat plant response rating,wheat; [7],0
same,Nutsedge plant response rating,purple nutsedge; [1],0
same,"Plant response rating, Nutsedge",purple nutsedge; [2],0
same,"Plant response rating, Nutsedge",purple nutsedge; [3],0
same,Nutsedge plant response rating,purple nutsedge; [4],0
same,Nutsedge plant response rating,purple nutsedge; [5],0
same,Nutsedge plant response rating,purple nutsedge; [6],0
same,Nutsedge plant response rating,purple nutsedge; [7],0
same,"Plant response rating, Ducksalad (0 to 10 scale, 0 is no effect, 10 is complete control)",duck salad; [8],0
same,"Ducksalad plant response rating (0 to 10 scale, 0 is no effect, 10 is complete control)",duck salad; flood test species,0
same,Ducksalad plant response rating,duck salad; [9],0
same,Ducksalad plant response rating,duck salad; [10],0
CCC=CCn1c(=O)on(C(=O)N(c2ccccc2)C(C)C)c1=O [Compound 454],Soybean plant response rating,soybean; [1],2
same,"Plant response rating, Soybean",soybean; [2],0
same,"Plant response rating, Soybean",soybean; [3],0
same,Soybean plant response rating,soybean; [4],0
same,Soybean plant response rating,soybean; [5],0
same,Soybean plant response rating,soybean; [6],1
same,Soybean plant response rating,soybean; [7],2
same,Wheat plant response rating,wheat; [1],0
same,"Plant response rating, Wheat",wheat; [2],0
same,"Plant response rating, Wheat",wheat; [3],0
same,Wheat plant response rating,wheat; [4],0
same,Wheat plant response rating,wheat; [5],0
same,Wheat plant response rating,wheat; [6],0
same,Wheat plant response rating,wheat; [7],0
same,Nutsedge plant response rating,purple nutsedge; [1],0
same,"Plant response rating, Nutsedge",purple nutsedge; [2],0
same,Nutsedge plant response rating,purple nutsedge; [4],0
same,Nutsedge plant response rating,purple nutsedge; [5],0
same,Nutsedge plant response rating,purple nutsedge; [6],0
same,Nutsedge plant response rating,purple nutsedge; [7],0
same,"Plant response rating, Ducksalad (0 to 10 scale, 0 is no effect, 10 is complete control)",duck salad; [8],0
same,"Ducksalad plant response rating (0 to 10 scale, 0 is no effect, 10 is complete control)",duck salad; flood test species,0
same,Ducksalad plant response rating,duck salad; [9],0
same,Ducksalad plant response rating,duck salad; [10],0
CC[Si](C)(C)Cn1c(=O)on(C(=O)N(c2ccc(F)cc2)C(C)C)c1=O [Compound 459],Soybean plant response rating,soybean; [1],6
same,"Plant response rating, Soybean",soybean; [2],0
same,"Plant response rating, Soybean",soybean; [3],0
same,Soybean plant response rating,soybean; [4],0
same,Soybean plant response rating,soybean; [5],0
same,Soybean plant response rating,soybean; [6],3
same,Soybean plant response rating,soybean; [7],3
same,Wheat plant response rating,wheat; [1],0
same,"Plant response rating, Wheat",wheat; [2],0
same,"Plant response rating, Wheat",wheat; [3],0
same,Wheat plant response rating,wheat; [4],0
same,Wheat plant response rating,wheat; [5],0
same,Wheat plant response rating,wheat; [6],0
same,Wheat plant response rating,wheat; [7],0
same,Nutsedge plant response rating,purple nutsedge; [1],0
same,"Plant response rating, Nutsedge",purple nutsedge; [2],0
same,"Plant response rating, Nutsedge",purple nutsedge; [3],0
same,Nutsedge plant response rating,purple nutsedge; [4],0
same,Nutsedge plant response rating,purple nutsedge; [5],0
same,Nutsedge plant response rating,purple nutsedge; [6],0
same,Nutsedge plant response rating,purple nutsedge; [7],0
same,"Plant response rating, Ducksalad (0 to 10 scale, 0 is no effect, 10 is complete control)",duck salad; [8],0
same,"Ducksalad plant response rating (0 to 10 scale, 0 is no effect, 10 is complete control)",duck salad; flood test species,0
same,Ducksalad plant response rating,duck salad; [9],0
same,Ducksalad plant response rating,duck salad; [10],0
CC(C)N(C(=O)n1oc(=O)n(COCC[Si](C)(C)C)c1=O)c1ccc(Cl)cc1 [Compound 467],Soybean plant response rating,soybean; [1],0
same,"Plant response rating, Soybean",soybean; [3],0
same,Soybean plant response rating,soybean; [4],0
same,Soybean plant response rating,soybean; [5],0
same,Soybean plant response rating,soybean; [6],0
same,Soybean plant response rating,soybean; [7],0
same,Wheat plant response rating,wheat; [1],0
same,"Plant response rating, Wheat",wheat; [2],0
same,"Plant response rating, Wheat",wheat; [3],0
same,Wheat plant response rating,wheat; [4],0
same,Wheat plant response rating,wheat; [5],0
same,Wheat plant response rating,wheat; [6],0
same,Wheat plant response rating,wheat; [7],0
same,Nutsedge plant response rating,purple nutsedge; [1],0
same,"Plant response rating, Nutsedge",purple nutsedge; [3],0
same,Nutsedge plant response rating,purple nutsedge; [4],0
same,Nutsedge plant response rating,purple nutsedge; [5],0
same,Nutsedge plant response rating,purple nutsedge; [6],0
same,"Plant response rating, Ducksalad (0 to 10 scale, 0 is no effect, 10 is complete control)",duck salad; [8],0
same,"Ducksalad plant response rating (0 to 10 scale, 0 is no effect, 10 is complete control)",duck salad; flood test species,0
same,Ducksalad plant response rating,duck salad; [9],0
same,Ducksalad plant response rating,duck salad; [10],0
CC(C)C(=O)Cn1c(=O)on(C(=O)N(c2ccc(F)cc2F)C(C)C)c1=O [Compound 486],Soybean plant response rating,soybean; [11],4
same,"Plant response rating, Soybean",soybean; [12],4
same,"Plant response rating, Soybean",soybean; [2],0
same,Soybean plant response rating,soybean; [13],0
same,Soybean plant response rating,soybean; [4],0
same,Soybean plant response rating,soybean; [5],2
same,Soybean plant response rating,soybean; [6],4
same,Wheat plant response rating,wheat; [11],0
same,"Plant response rating, Wheat",wheat; [12],5
same,"Plant response rating, Wheat",wheat; [2],0
same,Wheat plant response rating,wheat; [13],0
same,Wheat plant response rating,wheat; [4],0
same,Wheat plant response rating,wheat; [5],0
same,Wheat plant response rating,wheat; [6],0
same,Nutsedge plant response rating,purple nutsedge; [11],0
same,"Plant response rating, Nutsedge",purple nutsedge; [12],0
same,"Plant response rating, Nutsedge",purple nutsedge; [2],0
same,Nutsedge plant response rating,purple nutsedge; [13],0
same,Nutsedge plant response rating,purple nutsedge; [4],0
same,Nutsedge plant response rating,purple nutsedge; [5],0
same,Nutsedge plant response rating,purple nutsedge; [6],0
same,"Plant response rating, Ducksalad (0 to 10 scale, 0 is no effect, 10 is complete control)",duck salad; [8],0
same,"Ducksalad plant response rating (0 to 10 scale, 0 is no effect, 10 is complete control)",duck salad; flood test species,0
same,Ducksalad plant response rating,duck salad; [9],0
same,Ducksalad plant response rating,duck salad; [14],0
CCCCn1c(=O)on(C(=O)N(c2ccccc2)C(C)C)c1=O [Compound 556],Soybean plant response rating,soybean; [15],0
same,"Plant response rating, Soybean",soybean; [16],8
same,Soybean plant response rating,soybean; [17],0
same,Soybean plant response rating,soybean; [13],0
same,Soybean plant response rating (0 to 10 scale),"soybean; Preemergence, Rate 250 g/ha",0
same,Soybean plant response rating,soybean; [18],0
same,"Plant response rating, Soybean",soybean; [19],3
same,Wheat plant response rating,wheat; [15],0
same,"Plant response rating, Wheat",wheat; [16],3
same,Wheat plant response rating,wheat; [17],0
same,Wheat plant response rating,wheat; [13],0
same,Wheat plant response rating (0 to 10 scale),"wheat; Preemergence, Rate 250 g/ha",3
same,Wheat plant response rating,wheat; [18],4
same,"Plant response rating, Wheat",wheat; [19],2
same,Nutsedge plant response rating,purple nutsedge; [15],0
same,Nutsedge plant response rating,purple nutsedge; [11],0
same,"Plant response rating, Nutsedge",purple nutsedge; [16],0
same,Nutsedge plant response rating,purple nutsedge; [17],0
same,Nutsedge plant response rating,purple nutsedge; [13],0
same,Nutsedge plant response rating (0 to 10 scale),"purple nutsedge; Preemergence, Rate 250 g/ha",0
same,Nutsedge plant response rating,purple nutsedge; [18],0
same,"Plant response rating, Nutsedge",purple nutsedge; [19],0
same,"Plant response rating, Ducksalad (0 to 10 scale, 0 is no effect, 10 is complete control)",duck salad; [8],0
same,"Ducksalad plant response rating (0 to 10 scale, 0 is no effect, 10 is complete control)",duck salad; flood test species,0
same,Ducksalad plant response rating,duck salad; [9],0
same,Ducksalad plant response rating,duck salad; [14],0
CCCCCCn1c(=O)on(C(=O)N(c2ccccc2)C(C)C)c1=O [Compound 558],Soybean plant response rating,soybean; [15],3
same,"Plant response rating, Soybean",soybean; [16],4
same,Soybean plant response rating,soybean; [17],0
same,Soybean plant response rating,soybean; [13],0
same,Soybean plant response rating (0 to 10 scale),"soybean; Preemergence, Rate 250 g/ha",0
same,Soybean plant response rating,soybean; [18],0
same,"Plant response rating, Soybean",soybean; [19],4
same,Wheat plant response rating,wheat; [15],0
same,"Plant response rating, Wheat",wheat; [16],0
same,Wheat plant response rating,wheat; [17],0
same,Wheat plant response rating,wheat; [13],0
same,Wheat plant response rating (0 to 10 scale),"wheat; Preemergence, Rate 250 g/ha",0
same,Wheat plant response rating,wheat; [18],2
same,"Plant response rating, Wheat",wheat; [19],0
same,Nutsedge plant response rating,purple nutsedge; [15],0
same,Nutsedge plant response rating,purple nutsedge; [11],0
same,"Plant response rating, Nutsedge",purple nutsedge; [16],0
same,Nutsedge plant response rating,purple nutsedge; [17],0
same,Nutsedge plant response rating,purple nutsedge; [13],0
same,Nutsedge plant response rating (0 to 10 scale),"purple nutsedge; Preemergence, Rate 250 g/ha",0
same,Nutsedge plant response rating,purple nutsedge; [18],0
same,"Plant response rating, Nutsedge",purple nutsedge; [19],0
same,"Plant response rating, Ducksalad (0 to 10 scale, 0 is no effect, 10 is complete control)",duck salad; [8],0
same,"Ducksalad plant response rating (0 to 10 scale, 0 is no effect, 10 is complete control)",duck salad; flood test species,0
same,Ducksalad plant response rating,duck salad; [9],0
same,Ducksalad plant response rating,duck salad; [14],0
